# Values joined by “and” are separate entries in the source; they are usually repeats but may differ in a detail not shown here. Equal entries are not always repeated. Structures can show the parent of a compound that is named as a salt. Where two headings read alike, the source gives them in different places.
# What was measured:
# [1] = tested on: Human peripheral T lymphocytes; test: T lymphocyte proliferation assay (anti-CD3 activated, [3H]thymidine); conditions: Ex vivo testing in T lymphocytes; for Antagonist properties: in presence of agonist Sp-8-Br-cAMPS; for relative potency*: reference compounds = 1.00
# [2] = target: T1, PKA type Iα (RIα/Cα) holoenzyme (Homo sapiens, UniProt P10644); test: Cook coupled spectrophotometric kinase assay, suppression (antagonist) assay, PKA type Iα; format: biochemical; conditions: for Potency: PKA type Iα enzymatic activity, relative to the known Rp-8-Br-cAMPS; for Antagonist / EC50: Table 1 (Example 83), PKA type Iα; for EC50: unit inferred, read-out: EC50 inhibition; for relative potency*: antagonists relative to Rp-8Br-cAMPS
# [3] = target: T1, PKA type Iα (RIα/Cα) holoenzyme; test: Cook assay, activation (agonist) assay, RIα holoenzyme; format: biochemical; conditions: Table 1 (Example 83), activation screen 10 μM analog
# [4] = target: T2, PKA type IIα (RIIα holoenzyme) (Homo sapiens, UniProt P13861); test: Cook kinase assay, suppression assay, PKA type IIα; format: biochemical; conditions: for relative inhibition*: % antagonist effect with 1 μM Sp-8Br-cAMPS at 250 μM of Rp-cAMPS analog; for EC50RII/EC50RI***: Selectivity for PKA type I (EC50 PKA type II/EC50 PKA type I); for Antagonist / EC50: Table 2, Holo RIIa; for EC50: unit inferred, read-out: EC50 inhibition; for relative potency**: antagonists relative to Rp-8-Br-cAMPS, Holo RIIa; for IC50: reversal of Sp-8-Br-cAMP-mediated PKA type II activation, 1 μM Sp-8-Br cAMPS, 10 nM RIIα holoenzyme, read-out: half-maximal antagonistic effect (IC50 or EC50)
# [5] = target: T2, PKA type IIα (RIIα holoenzyme); test: Cook assay, activation of Holo RIIα; conditions: for Agonist: Table 2, Holo RIIa
# [6] = target: PKA type Iα (holo RIα) (Homo sapiens, UniProt P10644); test: Biacore surface competition ligand binding assay, holo RIα; conditions: 10 nM holo RIα; for EC50: Rp-8-AHA cAMPS surface
# [7] = tested on: CD4+ T cells of MAIDS-infected C57BL6 mice; conditions: mouse, in vivo
# [8] = reversal of Sp-8-Br-cAMP-mediated PKA activation, 1 μM Sp-8-Br-cAMPS, 10 nM RIα holoenzyme, read-out: half-maximal antagonistic effect (IC50 or EC50)
Compound,Agonist properties [1],Antagonist properties [1],Potency [2],Antagonist [2],relative potency* [2],Agonist [3],"IC50 [2, 8]",further results
"(Rp)-8-(2-Thiazolyl)adenosine-3′,5′-cyclic phosphorothioic acid ammonium salt [Rp-8-(2-thiazole)-cAMPS]",No,Weak,,,,,,
"Nc1ncnc2c1nc(-c1ccccc1)n2C1OC2COP(O)(=S)OC2C1O (stereo not shown) [Rp-8-phenyl-cAMPS, (Rp)-8-Phenyladenosine-3′,5′-cyclic phosphorothioic acid]",No,Yes,1.28,yes,1.28,no,,EC50 [2]: 1060 nM; relative inhibition* [4]: 61%; EC50RII/EC50RI*** [4]: 46; Antagonist [4]: yes; EC50 [4]: 48600 nM; relative potency** [4]: 0.31; IC50 [4]: 48600 nM; Agonist [5]: no
"Nc1ncnc2c1nc(Br)n2[C@@H]1O[C@@H]2COP(O)(=S)O[C@@H]2C1O (stereo partly shown) [Sp-8-Br-cAMPS, reference compound]",Yes,No,,,,,,"Antagonist [4]: no; Agonist [5]: yes; EC50 ([5]; read-out: EC50 (activation constant of Holo RIIα with agonist), 10 nM Holo RIIα, 3 minute preincubation): 294 nM; relative potency* [1]: 1.00"
"Cc1ccc(-c2nc3c(N)ncnc3n2C2OC3COP(O)(=S)OC3C2O)o1 (stereo not shown) [Rp-8-(5-Me-2-furyl)-cAMPS, (Rp)-8-(5-Methyl-2-furyl)adenosine-3′,5′-cyclic phosphorothioic acid tributylammonium salt]",No,Yes,,yes,1.17,no,1160 nM,
"Nc1ncnc2c1nc(-c1cccs1)n2C1OC2COP(O)(=S)OC2C1O (stereo not shown) [Rp-8-(2-thienyl)-cAMPS, (Rp)-8-(2-Thienyl)adenosine-3′,5′-cyclic phosphorothioic acid ammonium salt]",No,Yes,3.01,yes,3.01,no,449 nM,
CCc1nc2c(N)ncnc2n1C1OC2COP(O)(=S)OC2C1O (stereo not shown) [Rp-8-ethyl-cAMPS],No,Yes,,yes,0.22,no,6130 nM,
"(Rp)-8-(5-Methoxy-2-furyl)adenosine-3′,5′-cyclic phosphorothioic acid tributylammonium salt [Rp-8-(5-MeO-2-FU)-cAMPS]",No,Yes,,,,,,relative potency* [1]: 0.25
Nc1ncnc2c1nc(-c1ccsc1)n2C1OC2COP(O)(=S)OC2C1O (stereo not shown) [Rp-8-(3-thienyl)-cAMPS],,Yes,1.83,yes,1.83,no,739 nM,
"Nc1ncnc2c1nc(-c1cc3ccccc3o1)n2C1OC2COP(O)(=S)OC2C1O (stereo not shown) [Rp-8-benzofuryl-cAMPS, (Rp)-8-(2-Benzofuryl)adenosine-3′,5′-cyclic phosphorothioic acid tributylammonium salt]",No,Yes,,yes,0.49,no,,EC50 [2]: 2780 nM
"Nc1ncnc2c1nc(-c1ccco1)n2C1OC2COP(O)(=S)OC2C1O (stereo not shown) [Rp-8-(2-furyl)-cAMPS, (Rp)-8-(2-Furyl)adenosine-3′,5′-cyclic phosphorothioic acid ammonium salt]",No,Yes,4.24,yes,4.24,no,238 nM and 337 nM and 360 nM,"EC50 [2]: 319 nM; IC50 ([2]; Table 3, read-out: holo RIa Cook): 349 nM; relative inhibition* [4]: 59%; EC50RII/EC50RI*** [4]: 32; Antagonist [4]: yes; EC50 [4]: 11600 nM; relative potency** [4]: 1.28; IC50 [4]: 11600 nM and 16700 nM; EC50 [6]: 377 nM; binding to 8-AHA cAMP surface ([6]; any concentration of antagonist): not affected; binding of holo complex at the Rp-8-AHA cAMPS surface ([6]; excess of antagonist 10 μM): completely blocked; effect in binding to the 8-AHA cAMP surface ([6]; excess of antagonist 10 μM): no effect; IFN-γ secretion of CD4+ T cells from the infected mice [7]: slightly increasing; TNF-α secretion by CD4 T cells of infected mice [7]: inhibited; TNF-α secretion of CD4+ T cells from the infected mice after stimulation with SEB [7]: reducing; significance (p) of effect on SEB stimulated TNF-α secretion by CD4 T cells [7]: 0.0041; Agonist [5]: no"
CC(=O)c1nc2c(N)ncnc2n1C1OC2COP(O)(=S)OC2C1O (stereo not shown) [Rp-8-acetyl-cAMPS],No,Yes,,yes,0.86,no,1580 nM,
Nc1ncnc2c1nc(-c1ccc(Br)o1)n2C1OC2COP(O)(=S)OC2C1O (stereo not shown) [Rp-8-(2-Br-5-furyl)-cAMPS],No,Yes,,yes*,0.45,no,2900 nM,EC50 [2]: 3000 nM
"Nc1ncnc2c1nc(-c1ccc(CO)o1)n2C1OC2COP(O)(=S)OC2C1O (stereo not shown) [Rp-8-(5-MeOH-2-furyl)-cAMPS, (Rp)-8-(2-Hydroxymethyl-5-furyl)adenosine-3′,5′-cyclic phosphorothioic acid tributylammonium salt]",No,Yes,,yes,0.68,no,1980 nM,
"Nc1ncnc2c1nc(-c1ccoc1)n2C1OC2COP(O)(=S)OC2C1O (stereo not shown) [Rp-8-(3-furyl)-cAMPS, (Rp)-8-(3-Furyl)adenosine-3′,5′-cyclic phosphorothioic acid ammonium salt]",,Yes,2.23,yes,2.23,no,607 nM,EC50 [6]: 743 nM
